Results reported in patent US10774049B2, “PU.1 inhibitors” (Albert Einstein College of Medicine, priority 2016, dated 2020).
Where a name gives a salt, the structure may show the parent alone.

Experiments:
PU.1 URE−/− AML cells [1] = assay: Colony forming capacity and serial replating of PU.1 URE−/− AML cells; assay type: cell-based, murine
Description: FIG. 2A-2F. PU.1 inhibition decreases cell growth and increases apoptosis of PU.1^1″ leukemic cells. (A) Chemical structures of heterocyclic diamidines DB1976, DB2115 and DB2313 used in this study. (B) Relative cell viability of URE−/− cells and BAF3 cells after treatment with increasing concentrations of vehicle or small molecules. Cell viability was assessed after 48 h. Data represent means of technical triplicate from one representative experiment; fold change compared to Vehicle is shown. (C) Cell proliferation assay of URE−/− after treatment with DB1976 (n=5), DB2115 (n=3), DB2313 (n=3), of MOLM13 cells (n=3), and THP1 cells (n=3). Cell counting was performed every 24 h during 4 days. Data represent means±SD of technical triplicate from one representative experiment. Forward strand: SEQ ID NO:3, and Reverse strand: SEQ ID NO:4; derived from the λB motif from the murine Ig lambda 2-4 enhancer, a known native PU.1-dependent gene and specific binding site for PU.1. (D) Clonogenic capacities of URE−/− cells after treatment with DB1976 (n=5), DB2115 (n=3) and DB2313 (n=4) in the first plating, and after serial replatings (n=3). Data represent means±SD of technical triplicate from one representative experiment. (E) Apoptotic cells (Annexin-V+Dapi−) fraction in URE−/− cells after 48 h of treatment with DB1976 (n=6), DB2115 (n=6) and DB2313 (n=3). […]

PU.1 URE−/− AML cells [2] = assay: Gene expression (transcriptome) analysis of PU.1 URE−/− AML cells; assay type: cell-based, murine; details: by at least 1.2-fold
Description: FIG. 3A-3G. Novel inhibitors show on-target PU.1 inhibitory activity. (A) Quantitative RT-PCR analysis of Csf1r, Junb, Sfpi1, E2f1 expression after 72 h (n=6) and, for Csf1r, after 1 h (n=3), 4 h (n=7), 8 h (n=3) and 24 h (n=3) of treatment with the small molecules in URE−/− cells, expression is normalized to GAPDH expression. Data represent means±SD of technical triplicate from one representative experiment; fold change compared to Vehicle is shown. (B) Chromatin immunoprecipitation assay showing PU.1 occupancy on E2f1, Junb, Csf1r promoters after treatment in Umsh cell line (n=5). 10·10^6 cells were collected for each condition after 8 h treatment with a double dose of the small molecules (50 uM for DB1976, 1.4 uM for DB2115 and 660 nM for DB2313) or Vehicle; and processed for ChIP using PU.1 monoclonal antibody. Myogenin was used as a negative control, not regulated by PU.1. Data represent means±SD of technical triplicate from one representative experiment. (C) Cell viability after PU.1 rescue in MOLM13 cells. MOLM13 were transduced with a lentiviral construct expressing either PU.1-GFP (PU.1, black bar) or GFP as a control (empty, white bar), sorted on GFP and plated with DB1976 (n=7), DB2115 (n=8), DB2313 (n=6) or Vehicle. Cell count was performed after 4 days. Data represent means±SD of technical triplicate from one representative experiment; fold change compared to Vehicle is shown. (D-G) Transcriptome analysis of URE−/− cells after 24 h of treatment with DB2313 versus vehicle (n=3). Differentially expressed genes were determined with a fold change at 1.2 and a P value <0.1. (D) Enrichment in genes directly regulated by PU.1 or in genes regulated by the other ETS transcription factors Ets1, Gabpa, Spi-B, Fli-1, using Ingenuity Knowledge Base. The red dotted line represents the significance threshold (−log (P value)>1.3). […] Deregulated gens in PUER cells were analyzed with a FC at 1.5 and P-value <0.05. […] P-value was calculated using the hypergeometric test. […]

PU.1 URE−/− AML cells [3] = assay: Transplantation of in vitro treated PU.1 URE−/− AML cells into sublethally irradiated mice; assay type: in vivo, mouse
Description: FIG. 6A-6H. Treatment with PU1 inhibitors increases survival and decreases tumor burden in vivo. (A) Experimental scheme. URE−/− cells were treated in vitro with DB2313 or Vehicle and counted after 2 days of culture. 200·10^3 viable cells per mouse were injected retroorbitally into sublethally irradiated mice. Mice were sacrificed at 6 weeks or used for survival analyses. (B) Kaplan-Meier survival analysis of transplanted mice (x animals for vehicle group, xx for DB2313 group, from 2 independent experiments, p=). (C,D) Spleen and liver weight 6 weeks after transplant (8 animals for vehicle group, 7 for DB2313 group). Data represent means±SD, each mouse is represented by an individual dot. (E) Chimerism of URE−/− cells in the bone marrow 6 weeks after transplant (14 animals per group from 2 independent experiments).
To assess the effect of PU.1 inhibitors on AML in vivo, we treated PU.1 URE^−/− AML cells for 2 days in vitro and injected 2×10^5 viable cells in sublethally irradiated recipient mice (FIG. 6A).

CC(C)NC(=N)c1ccc2nc(-c3ccc(OCc4cccc(COc5ccc(-c6nc7ccc(C(=N)NC(C)C)cc7[nH]6)cc5)c4F)cc3)[nH]c2c1 [DB2313, 3-Bis{4[4(5)-N-isopropylamidinobenzimidazolyl]phenoxymethyl]}-2-fluorobenzene tetrahydrochloride]
clonogenic capacity in serial replating, 4th and higher rounds of plating (PU.1 URE−/− AML cells [1]): complete disruption | clonogenicity in serial replating, second and third rounds of plating (PU.1 URE−/− AML cells [1]): highly significant decrease | number of downregulated probe sets (PU.1 URE−/− AML cells [2]): 781 probe sets | number of upregulated probe sets (PU.1 URE−/− AML cells [2]): 867 probe sets | number of dysregulated transcripts (out of 34,472 total) (PU.1 URE−/− AML cells [2]; 24 h): 1648 transcripts | mean chimerism, AML cell engraftment in the bone marrow (PU.1 URE−/− AML cells [3]; 6 weeks after transplant, vehicle 55%): 33% | splenic mean weight (PU.1 URE−/− AML cells [3]; 6 weeks post transplantation, vehicle 410 mg): 243 mg | liver mean weight (PU.1 URE−/− AML cells [3]; 6 weeks post transplantation, vehicle 2,347 mg): 1,548 mg | median latency (survival of recipient mice) (PU.1 URE−/− AML cells [3]; cells treated 2 days in vitro, vehicle 44 days): 68 days | histology: blast infiltration and disruption of splenic architecture (PU.1 URE−/− AML cells [3]; in comparison to vehicle group): significantly less pronounced effects | infiltration of the liver by leukemic blasts (PU.1 URE−/− AML cells [3]; in comparison to vehicle group): substantially reduced
